The record followed here is patent US20070010548A1, “Compounds having inhibitive activity of phosphatidylinositol 3-kinase and methods of use thereof” (ZENTARIS GmbH, priority 2003, published 2007).

Read-outs that look alike come from different tables or passages of the source.

The test system of test [1] is tumor cells altered in PI 3-K/PTEN. Nature of the test: Cellular growth inhibition assays on tumor cells altered in PI 3-K/PTEN. The class given is cell-based. Conditions: for IC50: approximate, read-out: Approx. mIC50 in cellular assays. The protocol:
(§1) The ovarian cancer cell line SKOV3 is not altered in PI 3-K signaling and should be less sensitive to the anti-proliferative effects produced by treatment with PI 3-K inhibitors, while the OVCAR3 cell line, which is altered in PI 3-K signaling, via amplification of PI 3-K activity, should be sensitive. SKOV3 cells were seeded in 96-well cell culture plates (Greiner) at a density of 20,000 cells per well in McCoys 5A media (GibcoBRL) with 10% fetal calf serum and 20 mM L-glutamine. OVCAR3 cells were seeded at a density of 15,000 cells per well in RPMI 1640 media (GibcoBRL) containing 20 mM 1-glutamine, 0.01 ng/ml bovine insulin, 10 mM Hepes pH 7.4, 1 mM sodium pyruvate, 2.5 g/L glucose, and 20% fetal calf serum. After 24 hours, compounds were added to cell media to a final concentration of 1 μM, and the cells were grown in the presence of the compounds for 48 hours, in media containing 0.5% fetal calf serum. Viability was determined using a MTT cell proliferation assay (R and D Systems) and comparison to DMSO alone controls (100% viability). Compounds which result in reduced viability may act either by inhibiting cell proliferation or by inducing apoptosis (programmed cell death).
Selected compounds were evaluated against paired ovarian cancer cell lines at a range of concentrations to determine effective concentrations for growth inhibition.
MDA-MB-468 and MDA-MB-231 cells were seeded in 96-well cell culture plates (Greiner) at a density of 20,000 cells per well in RMPI media (GibcoBRL) with 10% fetal calf serum and 20 mM L-glutamine. After 24 hours, compounds were added to cell media to a final concentrations ranging from 10 nM to 100 μM, and the cells were grown in the presence of the compounds for 48 hours in RMPI media containing 0.5% fetal calf serum and 20 mM L-glutamine. Viability was determined using a MTT cell proliferation assay (R and D Systems) and comparison to DMSO alone controls (100% viability). Compounds which result in reduced viability may act either by inhibiting cell proliferation or by inducing apoptosis (programmed cell death). […] Selected compounds were evaluated against the paired breast cancer cell lines at a range of concentrations to determine effective concentrations for growth inhibition.
Table 3 summarizes the data for several compounds of this structural group, including the IC50 for inhibition of enzyme activity in vitro, cellular mIC50 and anti-proliferative activity against tumor cells altered in PI 3-K mediated signaling, and effects on cellular levels of phospho-Akt.

Test [2] has as its system phospho-Akt in MDA-MB-468 cells. Nature of the test: Phospho-Akt levels in MDA-MB-468 cells (PathScan phospho-Akt ELISA / immunoblotting). The class given is cell-based, human. Conditions: 50 μM, 4 hours, serum-starved MDA-MB-468 cells; DMSO alone = 100%. The protocol:
Because phosphorylation and activation of PKB/Akt is dependent on PI 3-K activity, PI 3-K inhibitors decrease the cellular levels of phospho-Akt. MDA-MB-468 cells show constitutively high levels of phospho-Akt as a result of abnormal activation of PI 3-K signaling.
The effect of treatment with PI 3-K inhibitors on phospho-Akt levels in these cells was determined as follows. Cells were plated into 6-well cell culture dishes at a density of 5×10^5 cells per well in RMPI media containing 10% fetal calf serum and 2 mM L-glutamine. Twenty-four hours later, media was removed and replaced with serum-free RMPI containing 2 mM L-glutamine. The cells were serum-starved overnight.
Compounds were diluted into serum-free media to a final concentration of 50 μM and added to the cells. The cells were incubated in the presence of PI 3-K inhibitors for 4 hours. Phospho-Akt levels were determined using one of the following methods.
To determine phospho-Akt levels using immunoblotting, cells were washed twice with PBS and lysed in ice-cold lysis buffer (1% Triton X-100, 50 mM Hepes pH 7.4, 150 mM NaCl, 1.5mM MgCl2, 1 mM EGTA, 100 mM NaF, 10 mM Sodium Pyrophosphate, 1 mM Na(subscript: 3)VO(subscript: 4), 10% glycerol, InmM phenylmethylsulfonyl fluoride, and 10 ug/ml aprotifin). Total protein concentration was determined using a BCA assay. 30ug of total cell lysate protein was diluted into Laemmli sample buffer and loaded onto a 10% acrylamide gel, subjected to SDS-PAGE, and transferred to a PVDF membrane. The membrane was blocked with 5% bovine serum albumin and then incubated at 4° C. overnight with antibody. The membrane was washed in TBS-T (10 mM Tris-HCl pH 7.4, 150 mM NaCl, and 0.1% Tween-20) and incubated with HRP-conjugated antibody (diluted in 5% milk in TBS-T) at room temperature for 1 h. The membrane was washed extensively and the proteins were visualized by chemiluminscent detection. The compounds effects on phospho-Akt levels were observed as relative differences in the amount of phospho-Akt detected by immunoblotting.
Effects on cellular levels of phospho-Akt following treatment with PI 3-K inhibitors were quantified using the PathScan phospho-Akt ELISA (Cell Signaling Technologies)., a sandwich ELISA for detection of phospho-Akt. The kit was used according to the manufacturer protocol. Absorbance at 450 nm was determined for each sample and used directly as equivalent of phospho-Akt levels.
Percent decreases in phospho-Akt levels were determined by normalizing relative to blank samples (0%/O) and control samples treated with DMSO alone (1 00%).

Another test concerns SKOV3 cells. Nature of the test: MTT cell proliferation/viability assay, SKOV3 ovarian cancer cells. It is filed as cell-based. Conditions: Homo sapiens. The protocol:
as §1
Many of these also show similar selective effects on cell growth. Table 2 summarizes the results of two separate cell proliferation experiments for selected compounds of the present invention.

Where [3] appears, read: SK-OV-3, 48 hours, MTT, DMSO alone controls = 100% viability, Trial 1, read-out: Trial 1 SKOV-3 (viability).
Where [4] appears, read: SK-OV-3, 48 hours, MTT, DMSO alone controls = 100% viability, Trial 2, read-out: Trial 2 SKOV-3 (viability).
Where [5] appears, read: SK-OV-3, average of Trial 1 and Trial 2, 48 hours, read-out: Average SKOV3 (viability).

Take `CC1(C)CC(=O)C2=C(C1)Nc1c(c(C(C)(C)C)nn1C(C)(C)C)C2c1ccc(OCc2ccccc2)c(OCc2ccccc2)c1` (stereo not drawn) [Compound 963985]: in test [1], the “Anti-proliferative effects on tumor cells altered in PI 3-K/PTEN” value (from here on “Anti-proliferative effects”) is reported as “Yes” and the IC50 worked out at 1 µM. Moreover, the “Approx. % decrease phospho-Akt relative to controls” value in test [2] was determined as 50%.

On to `Cc1ccc(C2C3=C(CC(C)(C)CC3=O)Nc3c2c(C(C)(C)C)nn3-c2ccc(C)cc2)cc1` (stereo not drawn) [Compound 964028, 3-t-butyl-4-(4-methylphenyl)-7,7-dimethyl-1-(4-methylphenyl)-4,7,8,9-tetrahydro-1H-pyrazolo[3,4-b]quinolin-5(6H)-one], for which the results for the viability at 1 µM in the test on SKOV3 cells (setting [3]), in the test on SKOV3 cells (setting [4]) and in the test on SKOV3 cells (setting [5]) were 100%, 99.1% and 99.5%, respectively. The “Anti-proliferative effects” value in test [1] is “Yes”. For the same molecule, the IC50 in test [1] worked out at 10 µM. Besides, in test [2], the “Approx. % decrease phospho-Akt relative to controls” value is 40%.

In the case of `COc1ccc(-n2nc(C(C)(C)C)c3c2NC2=C(C(=O)CC(C)(C)C2)C3c2ccccc2Cl)cc1` (stereo not drawn) [Compound 964076, 3-t-butyl-4-(2-chlorophenyl)-7,7-dimethyl-1-(4-methoxyphenyl)-4,7,8,9-tetrahydro-1H-pyrazolo[3,4-b]quinolin-5(6H)-one], the viability at 1 µM with SKOV3 cells (setting [3]) was found to be 100%; in the test with SKOV3 cells (setting [4]), 92.9%; in the test with SKOV3 cells (setting [5]) it was 96.5%. Besides, the “Anti-proliferative effects” value in test [1] is reported as “Yes”. Further, the IC50 in test [1] is 10 µM. In addition, the “Approx. % decrease phospho-Akt relative to controls” value in test [2] was 60%.

Take `COc1ccc(OC)c(C2C3=C(CC(C)(C)CC3=O)Nc3c2c(C(C)(C)C)nn3-c2ccc(C)cc2C)c1` (stereo not drawn) [Compound 964232]: the viability at 1 µM amounted to 98% in the test with SKOV3 cells (setting [3]), 100% in the test with SKOV3 cells (setting [4]) and 99% with SKOV3 cells (setting [5]). The “Anti-proliferative effects” value in test [1] is given as “Yes”. The IC50 in test [1] is under 20 µM. In test [2], the “Approx. % decrease phospho-Akt relative to controls” value was found to be 50%.

With `COc1ccccc1C1C2=C(CC(C)(C)CC2=O)Nc2c1c(C(C)(C)C)nn2-c1ccc(Cl)c(C)c1` (stereo not drawn) [Compound 964247], the viability at 1 µM in the test with SKOV3 cells (setting [3]), in the test on SKOV3 cells (setting [4]) and with SKOV3 cells (setting [5]) was 100% in each case. Besides, in test [1], the “Anti-proliferative effects” value was “Yes”. For the same molecule, the IC50 in test [1] is under 20 µM. The “Approx. % decrease phospho-Akt relative to controls” value in test [2] was 30%.

Consider `CC1(C)CC(=O)C2=C(C1)Nc1c(c(C(C)(C)C)nn1-c1ccc(Cl)c(Cl)c1)C2c1cccc(OCc2ccccc2)c1` (stereo not drawn) [Compound 964260], for which the viability at 1 µM was 93% in the test with SKOV3 cells (setting [3]), 85% in the test with SKOV3 cells (setting [4]) and 89% in the test with SKOV3 cells (setting [5]). The “Anti-proliferative effects” value in test [1] was “Yes”. In test [1], the IC50 was under 20 µM. In addition, the “Approx. % decrease phospho-Akt relative to controls” value in test [2] came out at 40%.

Turning to `CC1(C)CC(=O)C2=C(C1)Nc1c(c(-c3ccccc3)nn1-c1cccc(F)c1)C2c1ccc(C(F)(F)F)cc1` (stereo not drawn) [Compound 964661], the viability at 1 µM was 99% in the test on SKOV3 cells (setting [3]), 77.1% with SKOV3 cells (setting [4]) and 88% with SKOV3 cells (setting [5]). Besides, in test [1], the “Anti-proliferative effects” value is recorded as “Yes”. The IC50 in test [1] is under 20 µM. Further, the “Approx. % decrease phospho-Akt relative to controls” value in test [2] is 40%.
